Data as given in patent US7795208B2, “Methods of using deacetylase inhibitors to promote cell differentiation and regeneration” (The Salk Institute for Biological Study, priority 2001, dated 2010).
Where “and” joins values, the source holds several entries; their conditions need not be identical. Identical values can stand only once. Entries after “also recorded” stand apart in the source; their conditions may differ.

Assays:
[1] = tested on: 4RE-luc, MEF2-luc, MCK-luc; assay: Luciferase assay of transiently transfected myogenic reporters in skeletal myoblasts; format: cell-based, mouse
Experimental: Mouse muscle myoblast C2C12 cells (obtained from the American Type Culture Collection, ATCC CRL-1772) and CC42 cells (from Dr. Kenneth Walsh, Tufts University School of Medicine) were cultured in DMEM supplemented with 20% fetal bovine serum, 2 mM glutamine and 1× kanamycin (growth medium, GM). Cellular differentiation was induced with DMEM supplemented with 2% horse serum and 1× insulin, transferring, selenium (Life Technologies). Human skeletal myocytes (CC-2561) were purchased from Clonetics. Stable C2C12 cell lines with integrated reporters are described in Wu, Z., et al., Mol Cell Biol 20:3951-64 (2000). The MCK-luc, 4RE-luc, MEF2 reporter constructs have been described in Puri, P. L., et al., EMBO Journal 16:369-83 (1997a) and Sartorelli, V., et al., Molecular & Cellular Biology 17:1010-26 (1997). The E2F-luc plasmid is described in Helin, K., et al., Genes Dev 7:1850-61 (1993). The MLC-lacZ-nls plasmid is described in Wu, et al. (2000). […] Following transfections, luciferase activity was determined using the Dual-Luciferase reporter assay system (Promega) on a microtiter luminescence detection system (MLX, Dynex).
C2C12 and CC42 cells were exposed to sodium butyrate 5 mM (Sigma), trichostatin A 50 nM (Upstate Biotechnologies), or valproic acid 10 mM (Sigma) for 24 hours in GM (GM regimen). TSA was removed and the cells cultured in DM for 48 hrs before being analyzed. […]

[2] = tested on: mouse embryos; assay: Embryos of pregnant MLC1/3F-nLacZ mice exposed in utero (somitogenesis, muscle gene expression); format: in vivo
Experimental: MLC1/3F-nLacZ pregnant mice (E 8.5) received intra peritoneal injection of 15 μg of TSA (WAKO chemicals, Neuss Germany) or VPA (Sigma) at E 8.5 and E 9.5 as described in Faiella, A., et al., Hum Mol Genet 9:227-36 (2000), and Nervi, C., et al., Cancer Res 61:1247-9 (2001). VPA was dissolved in distilled water and administered at doses of 6 mg/mice (about 150 μg/ml) every 12 h at E 8.5, E 9, E 9.5, E 10 as described in Faiella et al. (2000). […] Mice were sacrificed at E 10.5, and the embryos were observed under a dissecting stereo-microscope to evaluate their viability, presence of external malformations, and number of somites. Embryos were fixed in 4% paraformaldehyde for histology and X-Gal staining or immunocytochemistry using antibodies against MyoD and myosin heavy chains as described in Tajbakhsh, S., et al., Neuron 13:813-21 (1994).
DI was administered intraperitoneally to pregnant mice (at a concentration of 0.5 to 1 mg/Kg for TSA and 200 mg/Kg for VPA) at post-implantation stages of E 8.5, and the pregnant mice were sacrificed at 10.5, when MyoD expression is clearly detectable in the myotomes. […] In Table 2, Somites of MLC1/3F-nLacZ mice (injected at day 8.5 and sacrificed at day 10.5) were scored after staining the embryos to detect β-galactosidase activity.

[3] = tested on: 4RE-luc and MCK-luc; assay: Chromatin-integrated muscle-specific reporters in stable C2C12 clones; format: cell-based, mouse; settings: TSA in GM (presence of serum), 48 hours
Experimental: FIGS. 2A-D are graphs showing DI activation muscle-specific transcription in skeletal muscle cells. […] Luciferase activity was measured in non-treated cells cultured in either GM (GM) or DM (DM). Alternatively, C2C12 were exposed to sodium butyrate for 24 hours in GM and then switched to DM without sodium butyrate (Butyr/GM>DM) or treated with sodium butyrate when cultured in DM (Butyr/DM) before being analyzed for luciferase activity. […] Luciferase assays were performed after culturing the cells for 48 hours in DM without sodium butyrate. […] The reporter activity was also analyzed in cells differentiated in the absence of TSA (DM)
Mouse muscle myoblast C2C12 cells (obtained from the American Type Culture Collection, ATCC CRL-1772) and CC42 cells (from Dr. Kenneth Walsh, Tufts University School of Medicine) were cultured in DMEM supplemented with 20% fetal bovine serum, 2 mM glutamine and 1× kanamycin (growth medium, GM). Cellular differentiation was induced with DMEM supplemented with 2% horse serum and 1× insulin, transferring, selenium (Life Technologies). Human skeletal myocytes (CC-2561) were purchased from Clonetics. […] Following transfections, luciferase activity was determined using the Dual-Luciferase reporter assay system (Promega) on a microtiter luminescence detection system (MLX, Dynex). […]

[4] = tested on: MyoD; assay: In vivo acetylation assay (3H-acetate incorporation); format: cell-based, mouse; settings: myoblasts cultured in GM
Experimental: In FIG. 3A, MyoD acetylation in undifferentiated C2C12 myoblasts (GM) untreated (−) or treated with either sodium butyrate (Butyr.) or TSA and in differentiated myotubes (abbrev. DM in FIG. 3A, but not to be confused with the abbreviation for “differentiation medium” as used elsewhere herein) was measured by ^3H incorporation of exogenously transfected Flag-tagged MyoD following metabolic labeling with ^3H sodium acetate as described in Sartorelli, V., et al., Molecular Cell 4:725-34 (1999). […] Chromatin was immunoprecipitated with antibodies against acetyl-histone 4 (AcH4) or IgG (as a control). Purified DNA from anti-AcH4 immunoprecipitated chromatin was analyzed by PCR using primers recognizing GAPDH promoter and MCK enhancer as described in Example 1. Unbound DNA (lanes 2 and 3, top panel) is an aliquot of chromatin not immunoprecipitated by anti-AcH4 antibody and amplified with GAPDH primers. Input (lanes 2 and 3, bottom panel) is an aliquot (1%) of the chromatin analyzed before the immunoprecipitation to quantify the amount of DNA present in different samples. […] Myoblasts were then formaldehyde cross-linked and processed.
In vivo acetylation assay was performed as described in Sartorelli, V., et al., Molecular Cell 4:725-34 (1999).
The acetylation of MyoD by ^3H-acetate incorporation in myoblasts, cultured in either the absence or presence of TSA, was evaluated. […]

[5] = tested on: histones of the MCK enhancer; assay: Chromatin immunoprecipitation with anti-acetyl-histone H4; format: cell-based, mouse; settings: myoblasts exposed to TSA in GM 16 hours, then DM 24 hours
Experimental: In FIG. 3A, MyoD acetylation in undifferentiated C2C12 myoblasts (GM) untreated (−) or treated with either sodium butyrate (Butyr.) or TSA and in differentiated myotubes (abbrev. DM in FIG. 3A, but not to be confused with the abbreviation for “differentiation medium” as used elsewhere herein) was measured by ^3H incorporation of exogenously transfected Flag-tagged MyoD following metabolic labeling with ^3H sodium acetate as described in Sartorelli, V., et al., Molecular Cell 4:725-34 (1999). […] Chromatin was immunoprecipitated with antibodies against acetyl-histone 4 (AcH4) or IgG (as a control). Purified DNA from anti-AcH4 immunoprecipitated chromatin was analyzed by PCR using primers recognizing GAPDH promoter and MCK enhancer as described in Example 1. Unbound DNA (lanes 2 and 3, top panel) is an aliquot of chromatin not immunoprecipitated by anti-AcH4 antibody and amplified with GAPDH primers. Input (lanes 2 and 3, bottom panel) is an aliquot (1%) of the chromatin analyzed before the immunoprecipitation to quantify the amount of DNA present in different samples. […] Myoblasts were then formaldehyde cross-linked and processed. […]
The MCK primers amplify nucleotides −1229 to −1007 of the MCK enhancer, while the GAPDH primers amplify nucleotides −1030 to −721. The PCR products were analyzed on 6% non-denaturing polyacrylamide gels. […]

[6] = i.p. to pregnant mice at E 8.5, sacrificed at 10.5, 0.5 to 1 mg/Kg TSA, 200 mg/Kg VPA
[7] = treated at E 8.5, sacrificed at E 9.5

HDAC1-mediated inhibition of 4RE-luc ([1]; HDAC1 expression vector co-transfected): could be reversed
SMILES: CC(/C=C/C(=O)NO)=C\[C@@H](C)C(=O)c1ccc(N(C)C)cc1 [TSA, trichostatin A]
transcription of transiently transfected myogenic reporter constructs ([1]; treatment in GM or in DM): stimulates transcription of the reporter constructs only when the DI inhibitors are applied to the cells cultured in GM; also recorded: activation of a transfected MCK-luc reporter | level of MLC-lacZ transgene expression ([2]; E 10.5 embryos, vs control embryos): higher level of MLC-lacZ transgene expression | # somites (β-galactosidase staining) ([2]; MLC1/3F-nLacZ mice injected at day 8.5, sacrificed at day 10.5, TSA [1 mg/ml] (20 ul + 380 ul PBS), VPA 155 mM, one value per embryo, PBS controls 25-32): 32 and 37 and 34 and 36 and 33 | Notch transcripts ([2]; animals exposed to a DI): increased | levels of MHC in exposed embryos (Western blot) ([2]; extracts of total embryos): augmented the levels of MHC | number of MLC expressing somites [2, 6]: consistently increased | number of MyoD expressing myotomes [2, 6]: consistently increased | acetylation of histone H4 in embryos [2, 7]: increased acetylation of histone H4 | embryo size vs control embryos [2, 7]: modestly and consistently larger than control embryos | increase in number of somites vs control embryos [2, 7]: +2 to +6 | number of somites expressing Myf-5 [2, 7]: increased | activation of integrated 4RE-luc and MCK-luc templates [3]: two-to-three | incorporation of 3H-acetate into transfected MyoD [4]: stimulated the incorporation | histone H4 acetylation of the MCK enhancer (ChIP) [5]: histone hyperacetylation of the MCK enhancer
